Test results reported in ChEMBL document CHEMBL1671662, “In vitro activities of telavancin and six comparator agents against anaerobic bacterial isolates” (2009).
≈ marks a conversion by molar mass, not a printed value.

Legend:
Assay type in all cases: functional
[1] = tested on: Parvimonas micra; assay: Antibacterial activity against Peptostreptococcus micros by CLSI M11-A6 agar dilution method
[2] = tested on: Ruminococcus gnavus; assay: Antibacterial activity against Ruminococcus gnavus by CLSI M11-A6 agar dilution method; conditions: Mediterraneibacter gnavus
[3] = tested on: Clostridium leptum; assay: Antibacterial activity against Clostridium leptum by CLSI M11-A6 agar dilution method
[4] = tested on: Collinsella aerofaciens; assay: Antibacterial activity against Colinsella aerofaciens by CLSI M11-A6 agar dilution method
[5] = tested on: Hoylesella loescheii; assay: Antibacterial activity against Prevotella loescheii by CLSI M11-A6 agar dilution method
[6] = tested on: Clostridium beijerinckii; assay: Antibacterial activity against Clostridium beijerinckii by CLSI M11-A6 agar dilution method
[7] = tested on: Bacteroides ovatus; assay: Antibacterial activity against Bacteroides ovatus by CLSI M11-A6 agar dilution method
[8] = tested on: Coprobacillus cateniformis; assay: Antibacterial activity against Coprobacillus cateniformis by CLSI M11-A6 agar dilution method
[9] = tested on: Clostridium hathewayi; assay: Antibacterial activity against Clostridium hathewayi by CLSI M11-A6 agar dilution method; conditions: Hungatella hathewayi
[10] = tested on: Sutterella wadsworthensis; assay: Antibacterial activity against Sutterella wadsworthensis by CLSI M11-A6 agar dilution method
[11] = tested on: Fusobacterium varium; assay: Antibacterial activity against Fusobacterium varium by CLSI M11-A6 agar dilution method
[12] = tested on: Clostridium paraputrificum; assay: Antibacterial activity against Clostridium paraputrificum by CLSI M11-A6 agar dilution method
[13] = tested on: Odoribacter splanchnicus; assay: Antibacterial activity against Bacteroides splanchnicus by CLSI M11-A6 agar dilution method
[14] = tested on: Clostridium subterminale; assay: Antibacterial activity against Clostridium subterminale by CLSI M11-A6 agar dilution method
[15] = tested on: Blautia producta; assay: Antibacterial activity against Ruminococcus productus by CLSI M11-A6 agar dilution method
[16] = tested on: Prevotella nigrescens; assay: Antibacterial activity against Prevotella nigrescens by CLSI M11-A6 agar dilution method
[17] = tested on: Bilophila wadsworthia; assay: Antibacterial activity against Bilophila wadsworthia by CLSI M11-A6 agar dilution method
[18] = tested on: Clostridium glycolicum; assay: Antibacterial activity against Clostridium glycolicum by CLSI M11-A6 agar dilution method; conditions: Terrisporobacter glycolicus
[19] = tested on: Prevotella corporis; assay: Antibacterial activity against Prevotella corporis by CLSI M11-A6 agar dilution method
[20] = tested on: Coriobacterium; assay: Antibacterial activity against […] by CLSI M11-A6 agar dilution method
[21] = tested on: Blautia luti; assay: Antibacterial activity against Ruminococcus luti by CLSI M11-A6 agar dilution method
[22] = tested on: Clostridioides difficile; assay: Antibacterial activity against Clostridium difficile by CLSI M11-A6 agar dilution method
[23] = tested on: Ruminococcus sp.; assay: Antibacterial activity against Ruminococcus sp. by CLSI M11-A6 agar dilution method
[24] = tested on: Paeniclostridium sordellii; assay: Antibacterial activity against Clostridium sordellii by CLSI M11-A6 agar dilution method; conditions: Paraclostridium sordellii
[25] = tested on: Bacteroides thetaiotaomicron; assay: Antibacterial activity against Bacteroides thetaiotaomicron by CLSI M11-A6 agar dilution method
[26] = tested on: Streptococcus intermedius; assay: Antibacterial activity against Streptococcus intermedius by CLSI M11-A6 agar dilution method
[27] = tested on: Ruminococcus obeum; assay: Antibacterial activity against Ruminococcus obeum by CLSI M11-A6 agar dilution method; conditions: Blautia obeum
[28] = tested on: Clostridium butyricum; assay: Antibacterial activity against Clostridium butyricum by CLSI M11-A6 agar dilution method
[29] = tested on: Parabacteroides distasonis; assay: Antibacterial activity against Parabacteroides distasonis by CLSI M11-A6 agar dilution method
[30] = tested on: Clostridium celerecrescens; assay: Antibacterial activity against Clostridium celerecrescens by CLSI M11-A6 agar dilution method; conditions: Lacrimispora celerecrescens
[31] = tested on: Prevotella bivia; assay: Antibacterial activity against Prevotella bivia by CLSI M11-A6 agar dilution method
[32] = tested on: Prevotella disiens; assay: Antibacterial activity against Prevotella P disiens by CLSI M11-A6 agar dilution method
[33] = tested on: Flavonifractor plautii; assay: Antibacterial activity against Clostridium orbiscindens by CLSI M11-A6 agar dilution method
[34] = tested on: Actinomyces naeslundii; assay: Antibacterial activity against Actinomyces naeslundii by CLSI M11-A6 agar dilution method
[35] = tested on: Peptostreptococcus anaerobius; assay: Antibacterial activity against Peptostreptococcus anaerobius by CLSI M11-A6 agar dilution method
[36] = tested on: Catenibacterium mitsuokai; assay: Antibacterial activity against Catenibacterium mitsuokai by CLSI M11-A6 agar dilution method
[37] = tested on: Clostridium sporosphaeroides; assay: Antibacterial activity against Clostridium sporosphaeroides by CLSI M11-A6 agar dilution method; conditions: Faecalispora sporosphaeroides
[38] = tested on: Ruminococcus lactaris; assay: Antibacterial activity against Ruminococcus lactaris by CLSI M11-A6 agar dilution method
[39] = tested on: Clostridium perfringens; assay: Antibacterial activity against Clostridium perfringens by CLSI M11-A6 agar dilution method
[40] = tested on: Parabacteroides merdae; assay: Antibacterial activity against Parabacteroides merdae by CLSI M11-A6 agar dilution method
[41] = tested on: Clostridium bolteae; assay: Antibacterial activity against Clostridium bolteae by CLSI M11-A6 agar dilution method; conditions: Enterocloster bolteae
[42] = tested on: Clostridium sp.; assay: Antibacterial activity against Clostridium sp. by CLSI M11-A6 agar dilution method
[43] = tested on: Anaerococcus prevotii; assay: Antibacterial activity against Anaerococcus prevotii by CLSI M11-A6 agar dilution method

With CCC[C@@H]1C[C@@H](C(=O)N[C@@H]([C@H]2O[C@H](SC)[C@H](O)[C@@H](O)[C@H]2O)[C@H](C)Cl)N(C)C1 [CLINDAMYCIN] the MIC90 [1] was over 128 µg/mL, the MIC50 [2] was at most 0.12 µg/mL and the MIC90 [2] was 0.25 µg/mL (≈ 0.588 µM). The MIC90 [3] was 4 µg/mL (≈ 9.41 µM), the MIC50 [4] was at most 0.12 µg/mL and the MIC90 [4] was 1 µg/mL (≈ 2.35 µM). It also gave an MIC [5] of at most 0.12 µg/mL, an MIC50 [5] of at most 0.12 µg/mL and an MIC90 [5] of at most 0.12 µg/mL. For the same molecule, the MIC90 [6] was 4 µg/mL (≈ 9.41 µM), the MIC50 [7] was 2 µg/mL (≈ 4.71 µM) and the MIC90 [7] was over 128 µg/mL. It also gave an MIC50 [8] of at most 0.12 µg/mL, an MIC90 [8] of 1 µg/mL (≈ 2.35 µM) and an MIC50 [9] of 0.5 µg/mL (≈ 1.18 µM). It also gave an MIC90 [9] of 2 µg/mL (≈ 4.71 µM), an MIC50 [10] of 16 µg/mL (≈ 37.6 µM) and an MIC90 [10] of 128 µg/mL (≈ 301 µM). It also gave an MIC50 [11] of 1 µg/mL (≈ 2.35 µM), an MIC90 [11] of 32 µg/mL (≈ 75.3 µM) and an MIC90 [12] of 4 µg/mL (≈ 9.41 µM). It also gave an MIC50 [13] of at most 0.12 µg/mL, an MIC90 [13] of over 128 µg/mL and an MIC50 [14] of 0.5 µg/mL (≈ 1.18 µM). It also gave an MIC90 [14] of 8 µg/mL (≈ 18.8 µM), an MIC50 [15] of at most 0.12 µg/mL and an MIC90 [15] of 2 µg/mL (≈ 4.71 µM). For the same molecule, the MIC [16] was at most 0.12 µg/mL, the MIC50 [16] was at most 0.12 µg/mL and the MIC90 [16] was at most 0.12 µg/mL. It also gave an MIC50 [17] of 0.5 µg/mL (≈ 1.18 µM), an MIC90 [17] of 1 µg/mL (≈ 2.35 µM) and an MIC90 [18] of 4 µg/mL (≈ 9.41 µM). The MIC [19] was at most 0.12 µg/mL, the MIC50 [19] was at most 0.12 µg/mL and the MIC90 [19] was at most 0.12 µg/mL. For the same molecule, the MIC50 [20] was at most 0.12 µg/mL, the MIC90 [20] was 1 µg/mL (≈ 2.35 µM) and the MIC50 [21] was at most 0.12 µg/mL. The MIC90 [21] was 2 µg/mL (≈ 4.71 µM), the MIC50 [22] was 4 µg/mL (≈ 9.41 µM) and the MIC90 [22] was 128 µg/mL (≈ 301 µM). For the same molecule, the MIC90 [23] was over 128 µg/mL, the MIC90 [24] was 4 µg/mL (≈ 9.41 µM) and the MIC50 [25] was 4 µg/mL (≈ 9.41 µM). The MIC90 [25] was over 128 µg/mL, the MIC90 [26] was 0.5 µg/mL (≈ 1.18 µM) and the MIC50 [27] was at most 0.12 µg/mL. It also gave an MIC90 [27] of at most 0.12 µg/mL, an MIC90 [28] of 4 µg/mL (≈ 9.41 µM) and an MIC50 [29] of 2 µg/mL (≈ 4.71 µM). For the same molecule, the MIC90 [29] was 64 µg/mL (≈ 151 µM), the MIC90 [30] was 4 µg/mL (≈ 9.41 µM) and the MIC [31] was at most 0.12 µg/mL. The MIC50 [31] was at most 0.12 µg/mL, the MIC90 [31] was at most 0.12 µg/mL and the MIC [32] was at most 0.12 µg/mL. The MIC50 [32] was at most 0.12 µg/mL, the MIC90 [32] was at most 0.12 µg/mL and the MIC90 [33] was 4 µg/mL (≈ 9.41 µM). The MIC50 [34] was at most 0.12 µg/mL, the MIC90 [34] was 1 µg/mL (≈ 2.35 µM) and the MIC90 [35] was over 128 µg/mL. The MIC50 [36] was at most 0.12 µg/mL, the MIC90 [36] was 1 µg/mL (≈ 2.35 µM) and the MIC90 [37] was 4 µg/mL (≈ 9.41 µM). It also gave an MIC50 [38] of at most 0.12 µg/mL, an MIC90 [38] of 2 µg/mL (≈ 4.71 µM) and an MIC50 [39] of 0.5 µg/mL (≈ 1.18 µM). For the same molecule, the MIC90 [39] was 2 µg/mL (≈ 4.71 µM), the MIC50 [40] was 2 µg/mL (≈ 4.71 µM) and the MIC90 [40] was 64 µg/mL (≈ 151 µM). For the same molecule, the MIC50 [41] was 2 µg/mL (≈ 4.71 µM), the MIC90 [41] was 4 µg/mL (≈ 9.41 µM) and the MIC90 [42] was 4 µg/mL (≈ 9.41 µM). The MIC90 [43] was over 128 µg/mL.
